Patent US20050229276A1, “Method of producing cyclamen root tuber and method of proliferating cyclamen using the same” (Tokyo University of Agricultural, priority 2002, published 2005)

Tested on: explants from petioles of cyclamen (species: Flamenco)
Assay: Culture of explants from petioles (comparative)
Format: cell-based
Details: NAA 0.05 mg/l, 20 explants planted, 30 days
Method: For comparison, the explants from leaves and petioles of cyclamen (species: Flamenco) were cultured for 30 days by changing the contents of BA and sucrose in a basal medium prepared by adding 0.05 mg/l of NAA and 6 g/l of agar to the ⅓ MS medium and having a pH of 7.0. In all the cases, the root tubers were hardly enlarged by culture and rarely regenerated and accordingly, a clonal plant could not be obtained with high reproducibility.

c1ccc(CNc2ncnc3[nH]cnc23)cc1 [BA, benzylaminopurine]
5: Number of enlarged explants (BA 0.1 mg/l, sucrose 50 g/m)
1: Number of enlarged explants (BA 0.05 mg/l, sucrose 50 g/m) | Number of enlarged explants (BA 0.05 mg/l, sucrose 70 g/m) | Number of regenerate explants (BA 0.1 mg/l, sucrose 50 g/m) | Number of enlarged explants (BA 0.1 mg/l, sucrose 90 g/m) | Number of regenerate explants (BA 0.5 mg/l, sucrose 30 g/m) | Number of regenerate explants (BA 0.5 mg/l, sucrose 50 g/m) | Number of enlarged explants (BA 0.5 mg/l, sucrose 70 g/m) | Number of enlarged explants (BA 1 mg/l, sucrose 30 g/m) | Number of enlarged explants (BA 1 mg/l, sucrose 50 g/m)
2: Number of enlarged explants (BA 0.05 mg/l, sucrose 30 g/m) | Number of enlarged explants (BA 0.1 mg/l, sucrose 70 g/m)
0: Number of regenerate explants (BA 0.05 mg/l, sucrose 30 g/m) | Number of regenerate explants (BA 0.05 mg/l, sucrose 50 g/m) | Number of regenerate explants (BA 0.05 mg/l, sucrose 70 g/m) | Number of enlarged explants (BA 0.05 mg/l, sucrose 90 g/m) | Number of regenerate explants (BA 0.05 mg/l, sucrose 90 g/m) | Number of regenerate explants (BA 0.1 mg/l, sucrose 70 g/m) | Number of regenerate explants (BA 0.1 mg/l, sucrose 90 g/m) | Number of regenerate explants (BA 0.5 mg/l, sucrose 70 g/m) | Number of enlarged explants (BA 0.5 mg/l, sucrose 90 g/m) | Number of regenerate explants (BA 0.5 mg/l, sucrose 90 g/m) | Number of regenerate explants (BA 1 mg/l, sucrose 30 g/m) | Number of enlarged explants (BA 1 mg/l, sucrose 70 g/m) | Number of regenerate explants (BA 1 mg/l, sucrose 70 g/m) | Number of enlarged explants (BA 1 mg/l, sucrose 90 g/m) | Number of regenerate explants (BA 1 mg/l, sucrose 90 g/m)
3: Number of enlarged explants (BA 0.5 mg/l, sucrose 30 g/m)
4: Number of enlarged explants (BA 0.1 mg/l, sucrose 30 g/m) | Number of regenerate explants (BA 0.1 mg/l, sucrose 30 g/m) | Number of enlarged explants (BA 0.5 mg/l, sucrose 50 g/m)
10: Number of regenerate explants (BA 1 mg/l, sucrose 50 g/m)
